The test system of test [1] is iNCC (iPS cell-derived neural crest cell). Put plainly: Differentiation induction from iNCC into iMSC, surface antigen analysis using FACS. In kind it is cell-based, human. On the procedure:
The obtained iNCCs (iPSC-derived NCCs) were seeded at a density of 5.0×10^3 cells/well into a 6-well plate coated with vitronectin-N (Thermo Fisher Scientific) at a density of 1.5 μg/cm^2 and cultured under 37° C., 5% CO2 conditions for […] using the following differentiation medium (T3 medium) to induce iMSCs (iPSC-derived MSCs).
T3 medium: StemFit (registered trademark) For Mesenchymal Stem Cells (Ajinomoto Co., Inc.), 90 nM Dexamethasone (Sigma-Aldrich) […]
iMSC was induced according to Example 1, except that 100 nM Dexamethasone, 100 nM betamethasone, 100 nM predonisolone, 666 nM predonisolone were used.
Regarding the induced iMSC, surface antigen analysis of 4 types of MSC positive markers (CD90, CD44, CD73, CD105), 1 type of NCC positive marker (MSC micro-positive marker) (CD271), and two types of MSC negative markers (CD45 and CD34) was performed using FACS.

Test [2] relates to TSG-6 (TNFAIP6). In words: Gene expression of TSG-6 (TNFAIP6) after IFNγ stimulation, Real-Time PCR. The settings on record: iMSC induced by adding 50 nM to 10 μM Dexamethasone, 18 days; 50 ng/mL IFNγ for 48 hr; FIG. 3. It is filed as cell-based, human. On the procedure:
iNCCs were seeded at a density of 5.0×10^3 cells/well into a 6-well plate coated with vitronectin-N at a density of 1.5 μg/cm^2, and cultured under 37° C., 5% CO2 conditions for 16 days using T3 medium to induce iMSCs.
After 16 days from the start of induction, 50 ng/mL IFNγ (R&D Systems) was added to T3 medium to stimulate for 48 hr. After stimulation, RNA was purified according to the protocol of PureLink (trademark) RNA Mini Kit (Thermo Fisher Scientific) and, after reverse transcription, gene expression of TSG-6 (TNFAIP6), a therapeutic marker for inflammatory diseases, was analyzed using Real-Time PCR. As comparison targets, iNCC-derived iMSC induced to differentiate in αMEM medium containing 10% FBS, and two lots of living bone marrow-derived MSC (BMMSC) (Lonza or RoosterBio) cultured in T3 medium for 12 to 16 days were used (Table 2).
iNCCs were seeded at a density of 3.0×10^4 cells/well into a 6-well plate coated with vitronectin-N at a density of 1.5 μg/cm^2, and cultured under 37° C., 5% CO2 conditions using StemFit (registered trademark) For Mesenchymal Stem Cells supplemented with 50 nM, 100 nM, 1 μM, 10 μM, 50 μM Dexamethasone to induce iMSCs. […] After stimulation, RNA was purified and, after reverse transcription, gene expression of TNFAIP6 was analyzed using Real-Time PCR.
Background: In qPCR the cycle at which signal appears reflects the starting amount.

Test [3] relates to iNCC. In words: Cell proliferation curve during differentiation induction. In kind it is cell-based, human. The note with it: group added with 50 μM; FIG. 2.
The nature of test [4]: Titer of corticosteroid as glucocorticoid. The note with it: titer as glucocorticoid taken for the converted concentrations of the Examples.
The conditions of test [5]: when hydrocortisone is set to 1; cited from earlier work.
The subject of test [6] is LX-2 Human Hepatic Stellate Cell Line. In words: Antifibrotic action of secretome: RT-PCR of fibrosis marker genes COL1A1 and ACTA2 in LX-2 cells. It is filed as cell-based. The settings on record: effect of TGF-β1 stimulation itself (10 ng/mL). On the procedure: LX-2 Human Hepatic Stellate Cell Line (EDM Millipore, hereinafter LX-2 cells) was cultured in a DMEM high Glucose (Life Technologies) medium supplemented with 10% FBS (Gibco), 1% penicillin-streptomycin (Nacalai), and 2 mM Glutamine (Gibco). On the fourth passage, 4×10^4 cells were seeded into each well of a 12-well plate. After 2 days of culture, the medium was replaced with a medium in which concentrated secretome obtained from iMSC was added at a concentration of 1× to a medium supplemented with 10 ng/mL TGF-β1 (Peprotech), and the culture was continued. On the second day after replacing the medium, cells were detached with Accutase (Thermo Fisher), and after collection, RNA was extracted and purified using Maxwell (registered trademark) 16 LEV simplyRNA Purification Kits (Promega), and reverse transcription was performed using PrimeScript™ RT Master Mix (Takara). RT-PCR was performed on the synthesized cDNA using the primers of TaqMan (registered trademark) Gene Expression Assays shown in Table 5.

Setting [7] is: StemFit For MSC + 100 nM corticosteroid.
[8] abbreviates: StemFit For MSC + 666 nM corticosteroid.

Data on seven compounds can be found in patent US20240182862A1, “METHOD FOR PRODUCING MESENCHYMAL STEM CELLS” (AJINOMOTO CO., INC., priority 2021, published 2024).

Turning to `C[C@H]1C[C@H]2[C@@H]3CCC4=CC(=O)C=C[C@]4(C)[C@@]3(F)[C@@H](O)C[C@]2(C)[C@@]1(O)C(=O)CO` [Betamethasone], in test [1] (setting [7]), the “CD34 (MSC negative marker) FACS” value was 8.12%, the “CD44 (MSC positive marker) FACS” value was found to be 99.60%, the “CD45 (MSC negative marker) FACS” value was 0.88% and the “CD73 (MSC positive marker) FACS” value was 97.86%. In test [1] (setting [7]), the “CD90 (MSC positive marker) FACS” value turned out to be 98.96%; the “CD105 (MSC positive marker) FACS” value is 95.34%; the “CD271 (NCC positive, MSC micro-positive marker) FACS” value (shortened to “CD271”) is given as 34.14%.
In the case of `C[C@@H]1C[C@H]2[C@@H]3CCC4=CC(=O)C=C[C@]4(C)[C@@]3(F)[C@@H](O)C[C@]2(C)[C@@]1(O)C(=O)CO` [Dexamethasone, Pregna-1,4-diene-3,20-dione,9-fluoro-11,17,21-trihydroxy-16-methyl-, (11β,16α)-], in test [1] (setting [7]), the “CD34 (MSC negative marker) FACS” value stood at 10.52%, the “CD44 (MSC positive marker) FACS” value is 99.26%, the “CD45 (MSC negative marker) FACS” value is 0.64% and the “CD73 (MSC positive marker) FACS” value came to 97.82%. In test [1] (setting [7]), the “CD90 (MSC positive marker) FACS” value was found to be 99.22%; the “CD105 (MSC positive marker) FACS” value came out at 96.36%; the “CD271” value came out at 23.42%. Further, the “gene expression of TSG-6 by IFNγ stimulation” value in test [2] is “significantly increased”. Further, in test [3], the “proliferation of cells during differentiation induction” value is reported as “stopped after day 13”. In test [4], the “titer used to convert concentrations” value amounted to 26.66.
In the case of `C[C@]12C=CC(=O)C=C1CC[C@@H]1[C@@H]2[C@@H](O)C[C@@]2(C)[C@H]1CC[C@]2(O)C(=O)CO` [Prednisolone], in test [5], the “titer of corticosteroid as glucocorticoid” value (“titer of corticosteroid” for short) was 4. The “effect in promoting differentiation” value in test [1] (666 nM, titer as glycocorticoid aligned) is on record as “effective in promoting differentiation”. In test [1] (setting [7]), the “CD34 (MSC negative marker) FACS” value amounted to 9.22%, the “CD44 (MSC positive marker) FACS” value was determined as 99.60%, the “CD45 (MSC negative marker) FACS” value is listed as 0.56% and the “CD73 (MSC positive marker) FACS” value was found to be 96.38%. In test [1] (setting [7]), the “CD90 (MSC positive marker) FACS” value came out at 98.99%; the “CD105 (MSC positive marker) FACS” value is listed as 93.32%; the “CD271” value is given as 56.94%. In addition, in test [1] (setting [8]), the “CD34 (MSC negative marker) FACS” value is 9.86%, the “CD44 (MSC positive marker) FACS” value was 99.70%, the “CD45 (MSC negative marker) FACS” value was 0.88% and the “CD73 (MSC positive marker) FACS” value was 97.38%. Also, in test [1] (setting [8]), the “CD90 (MSC positive marker) FACS” value was 99.18%; the “CD105 (MSC positive marker) FACS” value was found to be 95.28%; the “CD271” value is listed as 41.02%. In test [1] (added at 100 nM), the “effect in promoting differentiation” value is reported as “limited effect”. In test [4], the “titer used to convert concentrations” value came to 4.
Take `C[C@]12CCC(=O)C=C1CC[C@@H]1[C@@H]2C(=O)C[C@@]2(C)[C@H]1CC[C@]2(O)C(=O)CO` [cortisone]: the “titer of corticosteroid” value in test [5] is 0.8.
For the compound `C[C@@H]1C[C@H]2[C@@H]3C[C@H](F)C4=CC(=O)C=C[C@]4(C)[C@H]3[C@@H](O)C[C@]2(C)[C@@]1(O)C(=O)CO` [paramethasone], the “titer of corticosteroid” value in test [5] is 10.
On to `C[C@]12C=CC(=O)C=C1CC[C@H]1[C@@H]3C[C@@H](O)[C@](O)(C(=O)CO)[C@@]3(C)C[C@H](O)[C@@]12F` [triamcinolone], for which the “titer of corticosteroid” value in test [5] is recorded as 5.
“TGF-β1: TGF-β1 (Peprotech), 10 ng/mL stimulus of LX-2 cells”: in test [6], the ACTA2 expression entry is recorded as “markedly increased” and the COL1A1 expression result is recorded as “markedly increased”.
